Data reported in patent US12286437B2, “Cardiac sarcomere inhibitors” (Cytokinetics, Inc., priority 2021, dated 2025).

How the values were obtained:
[1] = Rat single dose pharmacokinetics; format: in vivo, Sprague Dawley rats; settings: male, Sprague Dawley, plasma, IV; for Vd: read-out: Vss
Experimental: Male Sprague Dawley rats were obtained from Zhejiang Vital River Laboratory Animal Technology Co., Ltd. The animals in IV group had free access to water and food. The animals in PO group were fasted overnight before dosing and provided with food 2 hours post dosing. The IV dose solution was prepared in 10% DMA/50% PG/40% HPβCD solution (40% w/v aqueous HPβCD) at a concentration of 1 mg/mL. The oral dosing suspension was prepared by suspending Test Article in 0.5% HPMC/0.1% Tween 80 in water at a concentration 0.2 mg/mL. Concentrations of IV and PO doses were measured at the end of the study. Pharmacokinetic parameters were calculated using the nominal dose values if the measured values were within 20% of the nominal values. Three rats were dosed IV via a bolus injection via caudal vein. Three rats per dose group were dosed by oral gavage. Blood samples were collected from the jugular vein cannula at predose, 5 (IV only), 15, 30 minutes, and 1, 2, 4, 6, and 24 hours post-dose. Blood volumes were replaced with an equal amount of sterile 0.9% saline. Blood samples were centrifuged and the collected plasma was stored at −80° C. for subsequent analysis. Plasma samples were analyzed for Test Article concentrations using a LC/MS/MS method. Briefly, a 50 μL aliquot of each plasma sample was mixed with 100 μL of acetonitrile that contained an internal standard. The mixture was vortexed and centrifuged. Ten (10) […] of the resulting solution was injected onto a reverse-phase C18 column and the resultant peaks detected on a LC/MS/MS equipped with a turbo ionspray ionization source. Sample concentrations below the limit of quantification (BLQ) were treated as zero for pharmacokinetic calculations. Pharmacokinetic parameters were estimated from individual animals using noncompartmental analysis of the concentration-time data (Phoenix WinNonLin software, version 64; Pharsight, Mountain View, CA). The elimination rate constant (k) was calculated as the absolute value of the slope of the linear regression of logarithm (log) of the concentration versus time for the last three data points of the concentration-time profiles. Apparent elimination half-life (t1/2) values were calculated as ln(2)/k. Area under the concentration-time curve (AUC) values were estimated using linear trapezoidal method. AUCt values were calculated from the dosing time to the last measurable concentration. AUC∞ values were calculated as the sum of the corresponding AUCt and the ratio of the last detectable concentration divided by k (AUCt-∞). Plasma clearance (CL) was calculated from Dose/AUC∞. Mean resident time (MRT) was estimated by moment analysis. Volume of distribution at steady state (Vss) was calculated from MRT∞×CL. Maximum concentration (Cmax) and time to reach Cmax (tmax) were recorded as observed. Bioavailability was calculated from the ratio of dose normalized AUC∞,po of individual rats/mean dAUC∞,iv×100% where dAUC was the dose normalized AUC value. Compounds tested were prepared in accordance with the synthetic procedures described herein.

CYP1A2 = target: T1, CYP1A2 (Homo sapiens, UniProt P05177); assay: Time-dependent inhibition of CYP1A2 in human liver microsomes; format: in vitro ADME; settings: for (% Activity NADPH T0)/(% Activity NADPH T30): fold change; for activity at 30 min, 25 µM / activity at 0 min, 25 µM / activity at 30 min, 50 µM / activity at 0 min, 50 µM: pooled human liver microsomes, human liver microsomes; for activity at 30 min, 25 µM / activity at 30 min, 50 µM: after 30 minutes incubation, read-out: % Activity NADPH T30; for activity at 0 min, 25 µM / activity at 0 min, 50 µM: time zero, read-out: % Activity NADPH T0
T1 construct: Pooled human microsomes and selective CYP probe substrates were used; from tissue; host or cells: pooled human liver microsomes
T1 sequence (P05177 1-516): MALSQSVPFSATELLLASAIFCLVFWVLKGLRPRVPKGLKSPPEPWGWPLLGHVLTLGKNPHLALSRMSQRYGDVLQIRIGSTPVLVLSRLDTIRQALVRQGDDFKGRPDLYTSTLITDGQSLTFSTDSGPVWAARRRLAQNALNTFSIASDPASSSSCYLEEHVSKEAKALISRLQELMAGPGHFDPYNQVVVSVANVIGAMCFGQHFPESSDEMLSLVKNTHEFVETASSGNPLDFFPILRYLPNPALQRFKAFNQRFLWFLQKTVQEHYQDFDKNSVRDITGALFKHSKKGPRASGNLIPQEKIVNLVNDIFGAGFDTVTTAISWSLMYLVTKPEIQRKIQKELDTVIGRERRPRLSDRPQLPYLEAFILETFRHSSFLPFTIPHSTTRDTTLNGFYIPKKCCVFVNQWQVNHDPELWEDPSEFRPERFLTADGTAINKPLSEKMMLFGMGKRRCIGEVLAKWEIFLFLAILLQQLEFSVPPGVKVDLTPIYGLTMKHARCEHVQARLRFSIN
Experimental: (§1) An assessment of the time-dependent Inhibitory Potential of the test compounds against Principal Human Cytochrome P450 Isozymes using Human Liver Microsomes was also carried out using standard methods (Grimm et al, Drug Metab. Dispos., July; 37(7):1355-70. doi: 10.1124/dmd.109.026716, 2009). Pooled human microsomes and selective CYP probe substrates were used for in vitro assessment of test compounds at 25 and 50 μM as time-dependent inhibitors of […] human hepatic cytochrome P450 isozymes (CYP1A2, 2B6, 2C9, 2C19, 2D6, and 3A4). LC-MS/MS was used to quantify metabolite formation. The inhibition of each P450 enzyme in human liver microsomes was measured as the percentage decrease in the activity of marker metabolite formation as measured by LC-MS/MS compared to non-inhibited controls (=100% activity) at time zero and after 30 minutes incubation. The occurrence of any time dependent inhibition was then expressed as the fold change in enzyme activity at time zero relative to the activity after 30 minutes incubation.

CYP2C8 = target: T2, CYP2C8 (Homo sapiens, UniProt P10632); assay: Time-dependent inhibition of CYP2C8 in human liver microsomes; format: in vitro ADME; settings: for (% Activity NADPH T0)/(% Activity NADPH T30): fold change; for activity at 30 min, 25 µM / activity at 0 min, 25 µM / activity at 30 min, 50 µM / activity at 0 min, 50 µM: pooled human liver microsomes, human liver microsomes; for activity at 30 min, 25 µM / activity at 30 min, 50 µM: after 30 minutes incubation, read-out: % Activity NADPH T30; for activity at 0 min, 25 µM / activity at 0 min, 50 µM: time zero, read-out: % Activity NADPH T0
T2 construct: Pooled human microsomes and selective CYP probe substrates were used; from tissue; host or cells: pooled human liver microsomes
T2 sequence (P10632 1-490): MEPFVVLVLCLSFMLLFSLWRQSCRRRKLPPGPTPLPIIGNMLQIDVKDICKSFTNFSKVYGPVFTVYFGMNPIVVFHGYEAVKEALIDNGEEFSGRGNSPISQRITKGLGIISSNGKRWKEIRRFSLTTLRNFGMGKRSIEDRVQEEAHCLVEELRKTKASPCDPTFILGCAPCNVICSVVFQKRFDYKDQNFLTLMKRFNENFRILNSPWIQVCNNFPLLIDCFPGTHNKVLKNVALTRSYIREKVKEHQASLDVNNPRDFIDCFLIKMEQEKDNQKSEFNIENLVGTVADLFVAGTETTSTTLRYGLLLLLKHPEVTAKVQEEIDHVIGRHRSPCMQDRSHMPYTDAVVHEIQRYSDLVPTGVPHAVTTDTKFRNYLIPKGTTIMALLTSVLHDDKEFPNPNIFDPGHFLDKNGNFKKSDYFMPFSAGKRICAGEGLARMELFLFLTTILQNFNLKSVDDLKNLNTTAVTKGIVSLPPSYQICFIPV
Experimental: as §1

CYP2C19 = target: T3, CYP2C19 (Homo sapiens, UniProt P33261); assay: Time-dependent inhibition of CYP2C19 in human liver microsomes; format: in vitro ADME; settings: for (% Activity NADPH T0)/(% Activity NADPH T30): fold change; for activity at 30 min, 25 µM / activity at 0 min, 25 µM / activity at 30 min, 50 µM / activity at 0 min, 50 µM: pooled human liver microsomes, human liver microsomes; for activity at 30 min, 25 µM / activity at 30 min, 50 µM: after 30 minutes incubation, read-out: % Activity NADPH T30; for activity at 0 min, 25 µM / activity at 0 min, 50 µM: time zero, read-out: % Activity NADPH T0
T3 construct: Pooled human microsomes and selective CYP probe substrates were used; from tissue; host or cells: pooled human liver microsomes
Experimental: as §1

T3 sequence (P33261 whole entry): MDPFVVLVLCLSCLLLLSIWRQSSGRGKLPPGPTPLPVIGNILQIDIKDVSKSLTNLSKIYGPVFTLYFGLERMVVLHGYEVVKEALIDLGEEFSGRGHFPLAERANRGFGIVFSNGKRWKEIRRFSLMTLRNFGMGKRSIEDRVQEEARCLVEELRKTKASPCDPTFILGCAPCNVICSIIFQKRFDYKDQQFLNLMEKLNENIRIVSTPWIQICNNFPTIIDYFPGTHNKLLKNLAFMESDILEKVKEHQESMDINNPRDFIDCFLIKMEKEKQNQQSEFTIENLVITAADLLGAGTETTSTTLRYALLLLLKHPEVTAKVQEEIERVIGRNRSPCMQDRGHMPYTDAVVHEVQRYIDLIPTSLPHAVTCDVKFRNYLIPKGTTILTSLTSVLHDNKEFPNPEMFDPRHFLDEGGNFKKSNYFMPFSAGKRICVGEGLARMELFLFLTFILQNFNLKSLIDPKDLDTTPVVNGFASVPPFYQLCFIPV

SMILES | clearance [1] [mL/min/kg] | half-life [1] [h] | Vd [1] [L/kg] | (% Activity NADPH T0)/(% Activity NADPH T30) (CYP1A2; CYP1A2, 25 μM) | (% Activity NADPH T0)/(% Activity NADPH T30) (CYP1A2; CYP1A2, 50 μM) | activity at 30 min, 25 µM (CYP1A2; CYP1A2, 25 μM) [%] | activity at 0 min, 25 µM (CYP1A2; CYP1A2, 25 μM) [%] | activity at 30 min, 50 µM (CYP1A2; CYP1A2, 50 μM) [%] | activity at 0 min, 50 µM (CYP1A2; CYP1A2, 50 μM) [%] | (% Activity NADPH T0)/(% Activity NADPH T30) (CYP2C8; CYP2C8, 25 μM) | (% Activity NADPH T0)/(% Activity NADPH T30) (CYP2C8; CYP2C8, 50 μM) | activity at 30 min, 25 µM (CYP2C8; CYP2C8, 25 μM) [%] | activity at 0 min, 25 µM (CYP2C8; CYP2C8, 25 μM) [%] | activity at 30 min, 50 µM (CYP2C8; CYP2C8, 50 μM) [%] | activity at 0 min, 50 µM (CYP2C8; CYP2C8, 50 μM) [%] | (% Activity NADPH T0)/(% Activity NADPH T30) (CYP2C19; CYP2C19, 25 μM) | (% Activity NADPH T0)/(% Activity NADPH T30) (CYP2C19; CYP2C19, 50 μM) | activity at 30 min, 25 µM (CYP2C19; CYP2C19, 25 μM) [%] | activity at 0 min, 25 µM (CYP2C19; CYP2C19, 25 μM) [%] | activity at 30 min, 50 µM (CYP2C19; CYP2C19, 50 μM) [%] | also measured
CC(C)N1CC(=O)N(Cc2ccc(C(F)(F)F)cc2)C2(CN(c3cccnn3)C2)C1=O [Compound 13, 8-isopropyl-2-(pyridazin-3-yl)-5-(4-(trifluoromethyl)benzyl)-2,5,8-triazaspiro[3.5]nonane-6,9-dione] | 38.9 | 0.95 | 2.17 | 0.9 | 0.8 | 99 | 88 | 110 | 92 | 1.2 | 1.0 | 98 | 116 | 106 | 106 | 1.0 | 0.9 | 108 | 108 | 119 | activity at 0 min, 50 µM (CYP2C19; CYP2C19, 50 μM): 113%
C[C@H]1CC[C@H](N2CC(=O)N(Cc3ccc(Cl)cc3)C3(CN(C(N)=O)C3)C2=O)CC1 [Compound 18, 5-(4-chlorobenzyl)-8-((1r,4r)-4-methylcyclohexyl)-6,9-dioxo-2,5,8-triazaspiro[3.5]nonane-2-carboxamide] | 63.6 | 2.15 | 9.48 | 0.9 | 1.0 | 99 | 85 | 90 | 92 | 0.7 | 1.3 | 100 | 65 | 76 | 100 | 1.0 | 1.1 | 99 | 103 | 84 | activity at 0 min, 50 µM (CYP2C19; CYP2C19, 50 μM): 91%
C[C@H]1CC[C@H](N2CC(=O)N(Cc3ccc(F)c(F)c3)C3(CN(C=O)C3)C2=O)CC1 [Compound 4, 5-(3,4-difluorobenzyl)-8-((1r,4r)-4-methylcyclohexyl)-6,9-dioxo-2,5,8-triazaspiro[3.5]nonane-2-carbaldehyde] |  |  |  | 1.1 | 1.0 |  |  |  |  | 1.0 | 1.2 |  |  |  |  | 1.4 | 1.1 |  |  |  | (% Activity NADPH T0)/(% Activity NADPH T30) (CYP2C19; CYP2C19, 50 μM, listed as compound 4): no change in activity
C[C@H]1CC[C@H](N2CC(=O)N(Cc3ccc(F)c(F)c3)C3(CN(C(N)=O)C3)C2=O)CC1 [Compound 5, 5-(3,4-difluorobenzyl)-8-((1r,4r)-4-methylcyclohexyl)-6,9-dioxo-2,5,8-triazaspiro[3.5]nonane-2-carboxamide] | 71.1 | 3.04 | 13.7 | 1.0 | 1.1 | 87 | 89 | 88 | 99 | 1.0 | 2.0 | 88 | 87 | 53 | 104 | 1.2 | 1.3 | 83 | 101 | 77 | activity at 0 min, 50 µM (CYP2C19; CYP2C19, 50 μM): 102%
